From the NIST ThermoML archive (doi:10.1016/j.jct.2016.02.016)

How the values were obtained:
[1] = 101.33 kPa, Liquid; for speed of sound: Sing-around technique in a fixed-path interferometer; for mass density: Vibrating tube method
[2] = refractive index (Na D-line) (dimensionless); settings: 101.33 kPa, Liquid, Standard Abbe refractometry
[3] = xn = mol fraction of the nth substance listed; settings: 100 kPa, Liquid; for speed of sound: Frequency=3 MHz, Sing-around technique in a fixed-path interferometer; for mass density: Vibrating tube method
[4] = refractive index (Na D-line) (dimensionless); xn = mol fraction of the nth substance listed; settings: 100 kPa, Liquid, Standard Abbe refractometry

CCCC(C)=O [pentan-2-one]
Settings	mass density, 293.15 K [kg/m3]	mass density, 298.15 K [kg/m3]	mass density, 303.15 K [kg/m3]	refractive index, 293.15 K	refractive index, 298.15 K	refractive index, 303.15 K	speed of sound, 293.15 K [m/s]	speed of sound, 298.15 K [m/s]	speed of sound, 303.15 K [m/s]
[1]	806.83	801.99	796.73	–	–	–	1232.4	1211.9	1191.7
[2]	–	–	–	1.39026	1.38793	1.38523	–	–	–

CCCCCC(C)=O [2-heptanone] + CN(C)C=O
298.15 K
Settings	mass density, [3] [kg/m3]	refractive index, [4]	speed of sound, [3] [m/s]
x2 = 0	811.08	1.40688	1262.7
x2 = 0.053	815.095	1.40756	1268.2
x2 = 0.0936	818.298	1.40811	1272.9
x2 = 0.1502	822.964	1.4089	1279
x2 = 0.2011	827.389	1.40962	1285.3
x2 = 0.2495	831.808	1.41034	1291.3
x2 = 0.296	836.272	1.41107	1297.5
x2 = 0.3419	840.896	1.41182	1304
x2 = 0.3963	846.646	1.41276	1312.2
x2 = 0.4324	850.691	1.41341	1318
x2 = 0.4957	858.13	1.41462	1328.7
x2 = 0.5537	–	1.41582	–
x2 = 0.5985	871.481	1.41679	1348.2
x2 = 0.6368	876.894	1.41766	1356.2
x2 = 0.6999	886.398	1.41919	1370.3
x2 = 0.7433	893.368	1.42032	1380.8
x2 = 0.8482	911.958	1.42329	1408.7
x2 = 0.8634	914.867	1.42376	1413.1
x2 = 0.8985	921.855	1.42488	1423.7
x2 = 0.948	932.305	1.42651	1439.5

CN(C)C=O [dimethylformamide] + CC(C)=O
x1 = 1
Settings	mass density, 293.15 K [kg/m3]	mass density, 298.15 K [kg/m3]	mass density, 303.15 K [kg/m3]	refractive index, 293.15 K	refractive index, 298.15 K	speed of sound, 293.15 K [m/s]	speed of sound, 298.15 K [m/s]	speed of sound, 303.15 K [m/s]
[3]	948.82	944.06	939.28	–	–	1476.7	1458.6	1438.8
[4]	–	–	–	1.43055	1.4284	–	–	–

CN(C)C=O [dimethylformamide]
Settings	mass density, 293.15 K [kg/m3]	mass density, 298.15 K [kg/m3]	mass density, 303.15 K [kg/m3]	refractive index, 293.15 K	refractive index, 298.15 K	refractive index, 303.15 K	speed of sound, 293.15 K [m/s]	speed of sound, 298.15 K [m/s]	speed of sound, 303.15 K [m/s]
[1]	948.82	944.06	939.28	–	–	–	1476.7	1458.6	1438.8
[2]	–	–	–	1.43055	1.4284	1.4261	–	–	–

CN(C)C=O [dimethylformamide] + CCC(C)=O
x1 = 1
Settings	mass density, 293.15 K [kg/m3]	mass density, 298.15 K [kg/m3]	mass density, 303.15 K [kg/m3]	refractive index, 293.15 K	refractive index, 298.15 K	refractive index, 303.15 K	speed of sound, 293.15 K [m/s]	speed of sound, 298.15 K [m/s]	speed of sound, 303.15 K [m/s]
[3]	948.82	944.06	939.28	–	–	–	1476.7	1458.6	1438.8
[4]	–	–	–	1.43055	1.4284	1.4261	–	–	–

CN(C)C=O [dimethylformamide] + CCCC(C)=O
x1 = 1
Settings	mass density, 293.15 K [kg/m3]	mass density, 298.15 K [kg/m3]	mass density, 303.15 K [kg/m3]	refractive index, 293.15 K	refractive index, 298.15 K	refractive index, 303.15 K	speed of sound, 293.15 K [m/s]	speed of sound, 298.15 K [m/s]	speed of sound, 303.15 K [m/s]
[3]	948.82	944.06	939.28	–	–	–	1476.7	1458.6	1438.8
[4]	–	–	–	1.43055	1.4284	1.4261	–	–	–

CN(C)C=O [dimethylformamide] + CCCCCC(C)=O
298.15 K, x1 = 1
Settings	mass density [kg/m3]	refractive index	speed of sound [m/s]
[3]	944.06	–	1458.6
[4]	–	1.4284	–

CC(C)=O [acetone]
Settings	mass density, 293.15 K [kg/m3]	mass density, 298.15 K [kg/m3]	mass density, 303.15 K [kg/m3]	refractive index, 293.15 K	refractive index, 298.15 K	speed of sound, 293.15 K [m/s]	speed of sound, 298.15 K [m/s]	speed of sound, 303.15 K [m/s]
[1]	790.19	784.43	778.63	–	–	1183.6	1163.6	1139.9
[2]	–	–	–	1.35845	1.35386	–	–	–

CCC(C)=O [butanone]
Settings	mass density, 293.15 K [kg/m3]	mass density, 298.15 K [kg/m3]	mass density, 303.15 K [kg/m3]	refractive index, 293.15 K	refractive index, 298.15 K	refractive index, 303.15 K	speed of sound, 293.15 K [m/s]	speed of sound, 298.15 K [m/s]	speed of sound, 303.15 K [m/s]
[1]	805.06	799.78	794.55	–	–	–	1212.6	1191.5	1172
[2]	–	–	–	1.37872	1.37605	1.37351	–	–	–

CCCCCC(C)=O [2-heptanone]
Settings	mass density, 293.15 K [kg/m3]	mass density, 298.15 K [kg/m3]	mass density, 303.15 K [kg/m3]	refractive index, 298.15 K	speed of sound, 293.15 K [m/s]	speed of sound, 298.15 K [m/s]	speed of sound, 303.15 K [m/s]
[1]	815.39	811.08	806.81	–	1282.1	1262.7	1244.4
[2]	–	–	–	1.40688	–	–	–
